Key:
HepG2 cells [1] = test: Measurement of cholesterol synthesis ability (Amplex red fluorescence); type: cell-based; details: Homo sapiens, HepG2 cells, 24 h treatment, lower is better, read-out: cholesterol synthesis ability, % control
Excerpt: (§1) Metformin that is widely used in type 2 diabetic patients inhibits the formation of glucose, the synthesis of cholesterol and triglyceride in liver cells and promote the absorption of glucose from blood vessels in the muscle cells. […] In the case of the ability to form cholesterol, triglyceride and glucose, the lower the numerical value, the better the effect. Numerical values for a control group become reference values.
(§2) As a hepatic cell model, HepG2 cells were used to measure cholesterol synthesis inhibitory ability, which is the important function of AMPK. The hepatic cell model HepG2 cells were cultured in 1% serum-containing media for 24 hours, and then treated with each of the compounds for 24 hours. Then, the cells were disrupted with lysis buffer (0.1 M potassium phosphate, pH 7.4, 0.05 M NaCl, 5 mM cholic acid, 0.1% Triton X-100). To the disrupted cells, the same volume of a reaction solution (2 U/ml cholesterol oxidizing agent, 2 U/ml peroxidase, 0.2 U/ml cholesterol esterase, and 300 μM Amplex red as a fluorescent factor) was added and allowed to react at 37° C. for 30 minutes. After completion of the reaction, the cells were measured with a fluorometer at a wavelength of 560/590 nm (ex/em), thus quantifying the amount of […] formed in the cells. A lower measurement value means an increased lipid production inhibitory ability.

HepG2 cells [2] = test: Measurement of gluconeogenesis (14C-lactate); type: cell-based; details: Homo sapiens, 24 h treatment, lower is better, read-out: gluconeogenesis (glucose synthesis ability), % control
Description: as §1
As a hepatic cell model, HepG2 cells were cultured in 10% serum-containing high glucose media, and then treated with each of the compounds for 24 hours. Then, the cells were treated with 0.5 uCi 14C-lactate and 10 mM L-lactate, and cultured for 4 hours. After cultivation, the media of the cells were removed, and the cells were washed with PBS, treated with 0.1N NaOH and left to stand at room temperature for 1 hour. Then, the cells were neutralized with 1N HCl, and the amount of glucose formed in the cells was measured with a liquid scintillation counter. […] A lower measurement value means a stronger blood glucose lowering activity.

C2C12 cells = test: Measurement of glucose absorption (3H-deoxy-glucose); type: cell-based
Excerpt: as §1
As a muscle cell model, C2C12 cells were induced to differentiate into muscle cells in 2% bovine fetal serum for 6 days. The C2C12 cells which differentiated into muscle cells were treated with each of the compounds in serum-free low glucose media, and then cultured with 1 μM of insulin for 24 hours. After cultivation, the cells were treated with 1 μCi 3H-deoxy-glucose and 10 μM deoxy-glucose at 37° C. for 15 minutes. After treatment, the media were removed, and the cells were washed twice with PBS. The washed cells were treated with 0.1 N NaOH and neutralized with 1N HCl. The amount of glucose absorbed into the cells was measured with a liquid scintillation counter. The effect of the compounds was determined by selecting a compound showing an absorption effect of at least 200%, dividing the absorption effect by the average percent of the control group, and then multiplying the divided value by […]. A higher measurement value means a stronger ability to reduce insulin resistance.

HepG2 cells [3] = test: Measurement of triglyceride (Amplex red fluorescence); type: cell-based; details: Homo sapiens, 24 h treatment, lower is better, read-out: triglyceride synthesis ability, % control
Description: as §1
as §2, with “model,” for “model, HepG2 cells were used to measure cholesterol synthesis inhibitory ability, which is the important function of AMPK. The hepatic cell model”, “(0.1M” for “(0.1 M”, “(0.76” for “(2”, “glycerol kinase, […] peroxidase, 22.2 U/ml glycerol” for “cholesterol”, “agent,” for “agent, 2 U/ml peroxidase, 0.2 U/ml cholesterol esterase,”

[4] = Mus musculus, differentiated C2C12 muscle cells, with 1 μM insulin 24 h, higher is better, read-out: glucose absorption, % control

For `CN(C)c1nc(N)nc(N(C)C)n1` [Example 10, N2,N2,N4,N4-tetramethyl-1,3,5-triazine-2,4,6-triamine], the activity at 100 µM (HepG2 cells [1]) was 98.9%, the activity at 200 µM (HepG2 cells [2]) was 87.2% and the melting point was 227 to 228 °C. For the same compound, the activity at 200 µM (C2C12 cells; [4]) was 102% and the activity at 100 µM (HepG2 cells [3]) was 97%.
For `CN(C)c1nc(N)nc(N)n1` [Example 11, N2,N2-dimethyl-1,3,5-triazine-2,4,6-triamine], the activity at 100 µM (HepG2 cells [1]) was 97.7%, the activity at 200 µM (HepG2 cells [2]) was 70.4% and the melting point was 271.8 to 272.8 °C. For the same compound, the activity at 200 µM (C2C12 cells; [4]) was 106% and the activity at 100 µM (HepG2 cells [3]) was 97.6%.
Compound `CN(C)c1nc(N)nc(Nc2ccc(Cl)c(Cl)c2)n1` [Example 17, N2-(3,4-dichlorophenyl)-N4,N4-dimethyl-1,3,5-triazine-2,4,6-triamine] has an activity at 100 µM (HepG2 cells [1]) of 11.3%, an activity at 100 µM (HepG2 cells [2]) of 15.2% and an activity at 100 µM (C2C12 cells; [4]) of 7.29%. It also gave an activity at 100 µM (HepG2 cells [3]) of -12.1%.
In the case of `CN(C)c1nc(N)nc(Nc2ccc(C(C)(C)C)cc2)n1` [Example 22, N2-(4-tert-butylphenyl)-N4,N4-dimethyl-1,3,5-triazine-2,4,6-triamine], the activity at 100 µM (HepG2 cells [1]) was 53%, the melting point was 253 to 263 °C and the activity at 100 µM (HepG2 cells [3]) was 34.4%.
`CC(C)c1ccc(Nc2nc(N)nc(N(C)C)n2)cc1` [Example 28, N2-(4-isopropylphenyl)-N4,N4-dimethyl-1,3,5-triazine-2,4,6-triamine] showed an activity at 100 µM (HepG2 cells [1]) of 65.9%, an activity at 100 µM (HepG2 cells [2]) of 45.4% and an activity at 100 µM (C2C12 cells; [4]) of 173%. It also gave an activity at 100 µM (HepG2 cells [3]) of 43.2%.
`CN(C)c1nc(N)nc(Nc2ccccc2F)n1` [Example 30, N2-(2-fluorophenyl)-N4,N4-dimethyl-1,3,5-triazine-2,4,6-triamine] showed an activity at 100 µM (HepG2 cells [1]) of 75.7%, an activity at 100 µM (HepG2 cells [2]) of 85.5% and an activity at 100 µM (C2C12 cells; [4]) of 133%. For the same compound, the activity at 100 µM (HepG2 cells [3]) was 81.1%.
Work on `CN(C)c1nc(N)nc(N2CCCC2)n1` [Example 35, N2,N2-dimethyl-6-(pyrrolidin-1-yl)-1,3,5-triazine-2,4-diamine] yielded an activity at 100 µM (HepG2 cells [1]) of 69%, an activity at 100 µM (HepG2 cells [2]) of 91.4% and an activity at 100 µM (C2C12 cells; [4]) of 285%. The “effect of reducing insulin resistance, times better than the control group” value (C2C12 cells; absorption effect divided by average percent of control group (metformin 2 mM), multiplied by 20) was “about 17 times” and the activity at 100 µM (HepG2 cells [3]) was 99.9%.
In the case of `CCc1ccccc1Nc1nc(N)nc(N(C)C)n1` [Example 36, N2-(2-ethylphenyl)-N4,N4-dimethyl-1,3,5-triazine-2,4,6-triamine], the activity at 100 µM (HepG2 cells [1]) was 51%, the activity at 100 µM (HepG2 cells [2]) was 42.1% and the activity at 100 µM (C2C12 cells; [4]) was 100%. It also gave an activity at 100 µM (HepG2 cells [3]) of 75.1%.
Work on `CCCCCCc1ccc(Nc2nc(N)nc(N(C)C)n2)cc1` [Example 42, N2-(4-hexylphenyl)-N4,N4-dimethyl-1,3,5-triazine-2,4,6-triamine] yielded an activity at 100 µM (HepG2 cells [1]) of 39%, a melting point of 132 to 168 °C and an activity at 100 µM (HepG2 cells [3]) of 34.3%.
For `CN(C)C(=N)N=C(N)N` [Metformin, reference compound], the activity at 2000 µM (HepG2 cells [1]; 2 mM) was 83.5%, the activity at 2000 µM (HepG2 cells [2]; 2 mM) was 52.7% and the activity at 2000 µM (C2C12 cells; Mus musculus, 2 mM, differentiated C2C12 muscle cells, with 1 μM insulin 24 h, higher is better, read-out: glucose absorption, % control) was 329%. The activity at 2000 µM (HepG2 cells [3]; 2 mM) was 70.6%.

— patent US8722674B2, “1,3,5-triazine-2,4,6-triamine compound or pharmaceutical acceptable salt thereof, and pharmaceutical composition comprising the same” (Hanall Biopharma Co., Ltd., priority 2007, dated 2014)
